Test results reported in US9918972B2, “Treatment of leukemia with artemisinin derivatives and combinations with other antineoplastic agents” (UNIVERSITY OF MARYLAND, BALTIMORE, priority 2014, dated 2018).
Several values for one entry are separate records, joined by “and”; a condition that tells them apart may be missing. Equal entries are not always repeated. Entries after “also recorded” stand apart in the source; their conditions may differ. Marks after values point to notes of the source that are not given here.

What was measured:
KOPN8 = assay: Kinase inhibitor drug combination screen (MTS, Bliss-independence analysis)
Excerpt: (§1) Hits were ranked by the observed inhibition over the Bliss independence prediction.
(§2) Combinations with positive values for this Bliss difference were considered synergistic, values near zero, additive, and negative values, antagonistic.

RCH-ACV = assay: as above
Excerpt: as §1, §2

[1] = test system: MOLM14, Kasumi-1, KOPN8 and RCH-ACV leukemia cell lines; assay: Kinase inhibitor drug combination screen, summary over the four leukemia cell lines; settings: for No. Cell Lines: cell lines synergistically inhibited (>10% over Bliss) by drug 1 combined with AS and/or ART-838
Excerpt: as §1, §2

MOLM14 cells [2] = assay: alamarBlue cytotoxicity assay, single-drug IC50, 48 h; format: cell-based, human; settings: MOLM14 (AML) cell line
Method: Peripheral wells were filled with sterile water to minimize the effects of evaporation. […] Results were normalized to cells treated with vehicle (≦0.5% DMSO) alone. IC50s were calculated using CompuSyn software and represent the means of at least three experiments performed in triplicate.

MOLM14 cells [3] = assay: ROS - mitochondrial superoxide (MitoSOX flow cytometry); format: cell-based, human
Method: FIGS. 4A-4D. […] CIs were computed as described above. CI<1 indicates synergy, CI=1, additivity, CI>1, antagonism. […] Cells were then loaded with 5 μM MitoSox for 30 min, washed, and analyzed by flow cytometry for MitoSox fluorescence (indicating mitochondrial superoxide) in the FL2 channel. […] Error bars represent the SEM of three independent experiments.

MOLM14 = assay: Kinase inhibitor drug combination screen (MTS, Bliss-independence analysis)
Excerpt: as §1, §2

KOPN8 cells = assay: alamarBlue cytotoxicity assay, single-drug IC50, 48 h; format: cell-based; settings: Homo sapiens, KOPN-8
Method: Cytotoxicity was assessed using alamarBlue assays (Life Technologies, Grand Island, N.Y.; used for IC50 determinations and all drug combinations except the drug combination screen (method described separately below)) or Trypan Blue dye exclusion (Life Technologies, Grand Island, N.Y.; used only for experiments using inhibitors that could interfere with alamarBlue assay performance (NAC, Tiron, DFO)).
Cell lines were seeded in 96-well tissue culture plates at 10^4 cells per well (myeloid leukemia lines) or 2×10^4 cells per well (lymphoid leukemia lines) in culture medium, followed by addition of drugs at the indicated concentrations. 2-4 wells per plate containing media-only were included for background subtraction. Peripheral wells were filled with sterile water to minimize the effects of evaporation.
MOLM14 cells were treated with each of these drugs, alone and in combination with ART-838 or AS at an equipotency ratio based on the IC50s for each drug (Table 1). In Table 1, KOPN8 and MOLM14 cell lines were treated with a range of concentrations of each drug for 48 h then cytotoxicity was measured via alamarBlue assay. Results were normalized to cells treated with vehicle (≦0.5% DMSO) alone. IC50s were calculated using CompuSyn software and represent the means of at least three experiments performed in triplicate. Addition of ART-838 or AS enhanced the cytotoxicity of all six tested drugs across a range of concentrations (FIG. 2). Drug interactions were typically most favorable (more additive/synergistic or less antagonistic) at higher doses.

[4] = KOPN8, Drug 2 = ART-838 at approximate IC50, 48 h
[5] = Drug 2 = ART-838 at approximate IC50, 48 h
[6] = MOLM14, Drug 2 = ART-838 at approximate IC50, 48 h
[7] = Drug 2 = AS at approximate IC50, 48 h
[8] = MOLM14, Drug 2 = AS at approximate IC50, 48 h
[9] = KOPN8, Drug 2 = AS at approximate IC50, 48 h

Compound | fractional inhibition over Bliss prediction (KOPN8; [4]) | No. Cell Lines [1] | fractional inhibition over Bliss prediction (MOLM14; [6]) | fractional inhibition over Bliss prediction (MOLM14; [8]) | fractional inhibition over Bliss prediction (KOPN8; [9]) | also measured
O=C(Nc1cccc(C(F)(F)F)c1)Nc1cc(S(=O)(=O)NC2CC2)ccc1-c1ccsc1 [AGI6780] | KOPN8 (0.17), | 2/4** | – | – | – | fractional inhibition over Bliss prediction (RCH-ACV; [5]): RCH-ACV (0.11)
C[C@@H]1CCC2[C@@H](C)[C@@H](CC(COP(=O)(Oc3ccccc3)Oc3ccccc3)C[C@H]3O[C@@H]4O[C@@]5(C)CCC6[C@H](C)CCC([C@H]3C)[C@]64OO5)O[C@@H]3O[C@@]4(C)CCC1[C@@]23OO4 (stereo partly drawn) [ART-838, artemisinin-derived trioxane diphenylphosphate dimer 838] | – | – | – | – | – | IC50 (MOLM14 cells [2]): 25 nM; mitochondrial superoxide (MitoSox MFI) (MOLM14 cells [3]; MOLM14, drug alone, 2.25x IC50, 16 h): increased; also recorded: induced superoxide to greater levels than AS
CC(C)C[C@H](NC(=O)[C@H](Cc1ccccc1)NC(=O)c1cnccn1)B(O)O [Bortezomib] | – | 2/4 | – | – | – | –
Cc1c[nH]c(-c2cnc(NCCNc3ccc(C#N)cn3)nc2-c2ccc(Cl)cc2Cl)n1 [CHIR-99021] | – | 2/4 | MOLM14 (0.53) | – | – | fractional inhibition over Bliss prediction (RCH-ACV; [7]): RCH-ACV (0.15)
C[C@@H](Oc1cc(-c2cnn(C3CCNCC3)c2)cnc1N)c1c(Cl)ccc(F)c1Cl [Crizotinib] | KOPN8 (0.12) | 2/4** | – | – | – | fractional inhibition over Bliss prediction (RCH-ACV; [7]): RCH-ACV (0.13)
COc1cc([C@@H]2c3cc4c(cc3[C@@H](O[C@@H]3O[C@@H]5CO[C@@H](C)O[C@H]5[C@H](O)[C@H]3O)[C@H]3COC(=O)[C@H]23)OCO4)cc(OC)c1O [ETO, etoposide] | – | – | – | – | – | IC50 (KOPN8 cells): 150 nM; effect on ART-838-induced superoxide generation (MOLM14 cells [3]; MOLM14, combined with ART-838, 2.25x IC50s, 16 h): further enhanced; effect on AS-induced superoxide generation (MOLM14 cells [3]; MOLM14, combined with AS, 2.25x IC50s, 16 h): further enhanced
C#Cc1cccc(Nc2ncnc3cc(OCCOC)c(OCCOC)cc23)c1 [Erlotinib] | – | 2/4 | – | – | – | –
CCc1cc(Nc2nccc(-c3c(-c4ccc(OC)c(C(=O)Nc5c(F)cccc5F)c4)nc4ccccn34)n2)c(OC)cc1N1CCC(N2CCN(S(C)(=O)=O)CC2)CC1 [GSK-1904529A] | 0.24 and 0.16 | 3/4 | 0.57 and 0.37 | 0.30 and 0.27 | KOPN8 (0.18), | fractional inhibition over Bliss prediction (RCH-ACV; [5]): RCH-ACV (0.14); fractional inhibition over Bliss prediction (RCH-ACV; [7]): RCH-ACV (0.20)
COc1ccc(COc2ccc(Cc3cnc(N)nc3N)cc2OC)cc1 [GW-2580] | KOPN8 (0.19) | 2/4 | MOLM14 (0.19), | 0.25 and 0.15 | KOPN8 (0.15) | –
O=S(=O)(NCCNC/C=C/c1ccc(Br)cc1)c1cccc2cnccc12 [H-89] | KOPN8 (0.10) | 2/4 | MOLM14 (0.13), | MOLM14 (0.21) | – | –
Cc1ccc(NC(=O)c2ccc(CN3CCN(C)CC3)cc2)cc1Nc1nccc(-c2cccnc2)n1 [Imatinib] | – | 2/4 | – | – | – | –
Cn1cc(-c2ccc3nnc(C(F)(F)c4ccc5ncccc5c4)n3n2)cn1 [JNJ-38877605] | KOPN8 (0.19) | 2/4 | MOLM14 (0.17), | MOLM14 (0.27), | KOPN8 (0.12) | –
CS(=O)(=O)CCNCc1ccc(-c2ccc3ncnc(Nc4ccc(OCc5cccc(F)c5)c(Cl)c4)c3c2)o1 [Lapatinib] | – | 2/4** | – | – | – | –
Cc1ccc(F)c(NC(=O)Nc2ccc(-c3cccc4[nH]nc(N)c34)cc2)c1 [Linifanib] | 0.19 | – | – | – | 0.20 | –
CO[C@@H]1[C@H](N(C)C(=O)c2ccccc2)C[C@H]2O[C@]1(C)n1c3ccccc3c3c4c(c5c6ccccc6n2c5c31)C(=O)NC4 [MID, midostaurin] | – | – | – | – | – | IC50 (KOPN8 cells): 210 nM
O=C(O)c1ccc(Nc2ncc3c(n2)-c2ccc(Cl)cc2C(c2c(F)cccc2F)=NC3)cc1 [MLN8054] | KOPN8 (0.11) | 2/4 | MOLM14 (0.15), | – | – | –
CC1(C)CNc2cc(NC(=O)c3cccnc3NCc3ccncc3)ccc21 [Motesanib] | 0.15 | – | – | – | 0.11 | –

Compound | fractional inhibition over Bliss prediction (KOPN8; [4]) | No. Cell Lines [1] | fractional inhibition over Bliss prediction (MOLM14; [6]) | fractional inhibition over Bliss prediction (MOLM14; [8]) | fractional inhibition over Bliss prediction (KOPN8; [9]) | also measured
Nc1ncnc2c1c(-c1cccc(OCc3ccccc3)c1)cn2C1CC(CN2CCCC2)C1 (stereo not drawn) [NVP-ADW742] | – | 2/4 | MOLM14 (0.17), | MOLM14 (0.20) | – | –
CCCCCCCCCCCCc1ccc(S(=O)(=O)Nc2nncs2)cc1 [PHT-427] | – | – | 0.20 | 0.26 | – | –
Cc1ccc(Nc2nccc(N(C)c3ccc4c(C)n(C)nc4c3)n2)cc1S(N)(=O)=O [Pazopanib] | – | 3/4 | – | – | – | –
CS(=O)(=O)N1CCN(Cc2cc3nc(-c4cccc5[nH]ncc45)nc(N4CCOCC4)c3s2)CC1 [Pictilisib] | 0.14 | – | – | – | 0.12 | –
Cc1ccc(S(=O)(=O)OCC(=O)Nc2ccc(C(=O)O)c(O)c2)cc1 [S31-201] | KOPN8 (0.23) | 2/4 | MOLM14 (0.18), | MOLM14 (0.30), | KOPN8 (0.17) | –
NC(=O)c1ccc(-c2nc(-c3ccc4c(c3)OCO4)c(-c3ccccn3)[nH]2)cc1 [SB-431542] | – | – | 0.11 | 0.16 | – | –
Cc1[nH]c(/C=C2\C(=O)Nc3ccc(S(=O)(=O)N(C)c4cccc(Cl)c4)cc32)c(C)c1C(=O)N1CCN(C)CC1 [SU11274] | KOPN8 (0.39) | 2/4 | MOLM14 (0.17), | MOLM14 (0.28), | KOPN8 (0.17) | –
CN1CCN(CCOc2cc(OC3CCOCC3)c3c(Nc4c(Cl)ccc5c4OCO5)ncnc3c2)CC1 [Saracatinib] | – | – | 0.21 | 0.33 | – | –
Cn1cnc2c(F)c(Nc3ccc(Br)cc3Cl)c(C(=O)NOCCO)cc21 [Selumetinib] | KOPN8 (0.19) | 2/4 | MOLM14 (0.15), | – | – | –
COc1cc2nccc(Oc3ccc(NC(=O)Nc4cc(C)on4)c(Cl)c3)c2cc1OC [Tivozanib] | KOPN8 (0.22) | 2/4 | – | MOLM14 (0.20), | KOPN8 (0.11) | –
CC(=O)Nc1cccc(-n2c(=O)n(C3CC3)c(=O)c3c(Nc4ccc(I)cc4F)n(C)c(=O)c(C)c32)c1 [Trametinib] | 0.20 | – | – | – | 0.20 | –
O=c1ncn2nc(Sc3ccc(F)cc3F)ccc2c1-c1c(Cl)cccc1Cl [VX-745] | KOPN8 (0.14) | 2/4 | – | MOLM14 (0.11) | – | –
Clc1ccc(Nc2nnc(Cc3ccncc3)c3ccccc23)cc1 [Vatalanib] | 0.12 | – | – | – | 0.15 | –
Oc1nc(-c2ccc(C(F)(F)F)cc2)nc2c1CSCC2 [XAV-939] | KOPN8 (0.18) | 3/4 | MOLM14 (0.17), | – | – | fractional inhibition over Bliss prediction (RCH-ACV; [7]): RCH-ACV (0.22)
ABT-263 | – | – | – | – | – | synergy with AS or ART-838 ([1]; screens in four human leukemia cell lines): Particularly strong synergy
JAK Inhibitor I | – | – | 0.15 | 0.44 | – | –
